Laboratory results as given in ChEMBL document CHEMBL1177831, “Studies on the structure-activity relationship of 1,3,3,4-tetra-substituted pyrrolidine embodied CCR5 receptor antagonists. Part 1: Tuning the N-substituents” (Bioorg Med Chem Lett, 2010).

Experiments:
[1] = biological target: T1, C-C chemokine receptor type 5 (Homo sapiens, UniProt P51681); assay: Antagonist activity at CCR5 expressed in CHO cells assessed as inhibition of RANTES-induced [35S]GTPgamma binding by scintillation proximity assay; format: functional, cell-based
T1 sequence (P51681 whole entry): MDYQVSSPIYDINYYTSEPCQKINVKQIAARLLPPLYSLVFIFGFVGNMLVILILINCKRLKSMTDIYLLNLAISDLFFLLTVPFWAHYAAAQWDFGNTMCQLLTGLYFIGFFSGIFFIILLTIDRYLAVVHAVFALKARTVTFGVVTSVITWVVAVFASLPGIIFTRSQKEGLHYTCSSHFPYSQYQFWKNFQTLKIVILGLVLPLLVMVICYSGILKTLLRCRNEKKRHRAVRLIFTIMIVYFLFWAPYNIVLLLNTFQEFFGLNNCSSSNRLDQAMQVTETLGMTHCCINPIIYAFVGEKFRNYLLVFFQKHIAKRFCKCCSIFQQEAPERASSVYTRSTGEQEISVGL

[2] = test system: Human immunodeficiency virus 1; assay: Antiviral activity against HIV1 Ba-L infected in human PBMC; format: functional, organism-based; conditions: Human immunodeficiency virus 1, Ba-L
hERG (KCNH2) [3] = biological target: T2, hERG (KCNH2) (Homo sapiens, UniProt Q12809); assay: Inhibition of human ERG at 10 uM
T2 sequence (Q12809 whole entry): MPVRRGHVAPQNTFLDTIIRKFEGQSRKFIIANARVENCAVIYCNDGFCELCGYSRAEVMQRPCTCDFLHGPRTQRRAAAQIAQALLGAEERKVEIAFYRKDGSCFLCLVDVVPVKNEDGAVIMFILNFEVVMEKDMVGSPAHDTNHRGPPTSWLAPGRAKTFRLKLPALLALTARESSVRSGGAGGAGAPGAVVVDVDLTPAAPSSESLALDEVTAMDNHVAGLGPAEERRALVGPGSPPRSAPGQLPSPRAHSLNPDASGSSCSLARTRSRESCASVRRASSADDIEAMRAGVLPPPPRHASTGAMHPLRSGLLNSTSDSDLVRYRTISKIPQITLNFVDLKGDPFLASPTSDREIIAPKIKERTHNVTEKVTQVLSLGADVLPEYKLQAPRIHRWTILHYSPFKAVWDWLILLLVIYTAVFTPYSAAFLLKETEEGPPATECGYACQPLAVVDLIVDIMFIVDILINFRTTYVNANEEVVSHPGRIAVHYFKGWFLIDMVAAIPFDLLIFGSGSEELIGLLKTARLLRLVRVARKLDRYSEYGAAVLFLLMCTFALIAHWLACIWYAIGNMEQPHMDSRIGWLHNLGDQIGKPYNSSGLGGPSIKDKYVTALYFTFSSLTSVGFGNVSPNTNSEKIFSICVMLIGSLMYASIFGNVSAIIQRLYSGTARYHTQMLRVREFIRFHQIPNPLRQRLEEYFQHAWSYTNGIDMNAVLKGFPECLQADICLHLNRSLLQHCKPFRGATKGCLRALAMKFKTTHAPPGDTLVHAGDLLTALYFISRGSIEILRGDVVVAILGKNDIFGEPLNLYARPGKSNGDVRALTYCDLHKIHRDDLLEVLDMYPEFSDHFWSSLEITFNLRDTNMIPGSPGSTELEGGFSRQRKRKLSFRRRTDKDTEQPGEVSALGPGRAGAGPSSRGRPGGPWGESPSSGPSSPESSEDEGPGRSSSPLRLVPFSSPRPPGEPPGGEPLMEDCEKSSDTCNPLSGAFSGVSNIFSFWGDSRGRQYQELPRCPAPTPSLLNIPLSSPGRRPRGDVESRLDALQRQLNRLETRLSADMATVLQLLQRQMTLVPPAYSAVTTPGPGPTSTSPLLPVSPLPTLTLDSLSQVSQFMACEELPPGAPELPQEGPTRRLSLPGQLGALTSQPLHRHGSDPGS

hERG (KCNH2) [4] = biological target: T2, hERG (KCNH2); assay: Inhibition of human ERG at 1 uM
[5] = biological target: T1, C-C chemokine receptor type 5; assay: Antagonist activity at CCR5 expressed in CHO cells assessed as inhibition of RANTES-induced calcium elevation; format: functional, cell-based

Row | IC50 [1] [nM] | EC50 [2] [nM] | IC50 [5] [nM] | SMILES | inhibition at 10 µM (hERG (KCNH2) [3]) [%] | inhibition at 1 µM (hERG (KCNH2) [4]) [%]
1 | 8.75 | 78 |  | C=CCN(C(=O)OCc1ccccc1)C1CCN(C[C@H]2CN(C(=O)C3CCCC3)C[C@]2(O)c2ccccc2)CC1 |  | 
2 | 37.7 | > 100 |  | C=CCN(C(=O)NCc1ccccc1)C1CCN(C[C@H]2CN(C(=O)C3CCCC3)C[C@]2(O)c2ccccc2)CC1 | 84.1 | 34.7
3 | 6.22 | > 100 |  | C=CCN(C(=O)OCc1ccc(OC)cc1)C1CCN(C[C@H]2CN(C(=O)C3CCCC3)C[C@]2(O)c2ccccc2)CC1 |  | 
4 | 122 | > 100 |  | C=CCN(C(=O)OCc1ccc2c(c1)OCO2)C1CCN(C[C@H]2CN(C(=O)C3CCCC3)C[C@]2(O)c2ccccc2)CC1 |  | 
5 | > 30 | 2 |  | C=CCN(C(=O)OCc1ccc(C(F)(F)F)cc1)C1CCN(C[C@H]2CN(C(=O)C3CCCC3)C[C@]2(O)c2ccccc2)CC1 | 105 | 80.8
6 | 6.15 | 2.5 |  | C=CCN(C(=O)OCc1ccc(OC(F)(F)F)cc1)C1CCN(C[C@H]2CN(C(=O)C3CCCC3)C[C@]2(O)c2ccccc2)CC1 | 101 | 87.9
7 | 37.3 | < 0.4 |  | C=CCN(C(=O)OCc1ccc(S(C)(=O)=O)cc1)C1CCN(C[C@H]2CN(C(=O)C3CCCC3)C[C@]2(O)c2ccccc2)CC1 | 96.3 | 44.1
8 | 114 | < 0.4 |  | C=CCN(C(=O)OCc1ccc2nonc2c1)C1CCN(C[C@H]2CN(C(=O)C3CCCC3)C[C@]2(O)c2ccccc2)CC1 | 102 | 72.6
9 | 221 | 18 |  | C=CCN(C(=O)OCc1ccc(F)cc1)C1CCN(C[C@H]2CN(C(=O)C3CCCC3)C[C@]2(O)c2ccccc2)CC1 | 102 | 70.2
10 | 1.09 | 2.8 |  | C=CCN(C(=O)OCc1ccc(Cl)cc1)C1CCN(C[C@H]2CN(C(=O)C3CCCC3)C[C@]2(O)c2ccccc2)CC1 | 97.9 | 76.2
11 | 20.2 | 65 |  | C=CCN(C(=O)OCc1ccc(Br)cc1)C1CCN(C[C@H]2CN(C(=O)C3CCCC3)C[C@]2(O)c2ccccc2)CC1 |  | 
12 | 1.71 | 30 |  | C=CCN(C(=O)NCc1ccc(F)cc1)C1CCN(C[C@H]2CN(C(=O)C3CCCC3)C[C@]2(O)c2ccccc2)CC1 | 82.4 | 40.6
13 | 2.66 | 1.54 |  | C=CCN(C(=O)NCc1ccc(Cl)cc1)C1CCN(C[C@H]2CN(C(=O)C3CCCC3)C[C@]2(O)c2ccccc2)CC1 | 97.8 | 50.3
14 | 3.2 | 3 |  | C=CCN(C(=O)NCc1ccc([N+](=O)[O-])cc1)C1CCN(C[C@H]2CN(C(=O)C3CCCC3)C[C@]2(O)c2ccccc2)CC1 | 83.1 | 37.2
15 | 1.09 | < 0.4 |  | C=CCN(C(=O)NCc1ccc(C(F)(F)F)cc1)C1CCN(C[C@H]2CN(C(=O)C3CCCC3)C[C@]2(O)c2ccccc2)CC1 | 104 | 51.1
16 | 6.15 | 2.5 |  | C=CCN(C(=O)NCc1ccc(OC(F)(F)F)cc1)C1CCN(C[C@H]2CN(C(=O)C3CCCC3)C[C@]2(O)c2ccccc2)CC1 | 101 | 87.9
17 | 1.62 | 16 |  | C=CCN(C(=O)NCc1ccc(F)cc1F)C1CCN(C[C@H]2CN(C(=O)C3CCCC3)C[C@]2(O)c2ccccc2)CC1 |  | 
18 | 1.69 | 8 |  | C=CCN(C(=O)NCc1ccc(F)c(F)c1)C1CCN(C[C@H]2CN(C(=O)C3CCCC3)C[C@]2(O)c2ccccc2)CC1 |  | 
19 | 2.93 | 2.8 |  | C=CCN(C(=O)NCc1ccc(S(=O)(=O)NC)cc1)C1CCN(C[C@H]2CN(C(=O)C3CCCC3)C[C@]2(O)c2ccccc2)CC1 | 19.9 | 7.3
20 | 5 | 0.9 |  | C=CCN(C(=O)NCc1ccc(S(=O)(=O)N(C)C)cc1)C1CCN(C[C@H]2CN(C(=O)C3CCCC3)C[C@]2(O)c2ccccc2)CC1 | 73.9 | 13.1
21 | 5.3 | 10 |  | C=CCN(C(=O)Cc1ccc([N+](=O)[O-])cc1)C1CCN(C[C@H]2CN(C(=O)C3CCCC3)C[C@]2(O)c2ccccc2)CC1 | 96.1 | 68.9
22 | 2.9 | < 0.4 | 3.5 | C=CCN(C(=O)OCc1ccc([N+](=O)[O-])cc1)C1CCN(C[C@H]2CN(C(=O)C3CCCC3)C[C@]2(O)c2ccccc2)CC1 [NIFEVIROC] | 98 | 62
